According to patent EP0186440A2, “Method for producing benzoic acid derivatives” (Takeda Chemical Industries, Ltd., priority 1984, dated 1986):
Where two headings read alike, the source gives them in different places.

Assays:
[1] = set-up: species or system male mice of Jcl:ICR strain; conditions: mouse, in vivo, po
Procedure: Five 5-week-old male mice of Jcl:ICR strain, weighing about 30 g each, were used. Compound A, C or E was suspended in a 5% solution of gum arabic and administered orally at the level of 0.2 ml per 10 grams body weight.

[2] = tested on: synthetic leukotriene D4 (LTD4); test: Bronchoconstriction in guinea pigs due to intravenous LTD4 (Konzett-Rössler method), compound given orally one hour before; type: in vivo, Guinea pigs of the Hartley strain; conditions: Cavia porcellus, 1 h; 50% inhibitory dose; oral, one hour before LTD4 (10 µg/kg i.v.); inhibition of overflowing volume at maximal response, 30 seconds after LTD4; read-out: ID50(p.o.)
Procedure: Guinea pigs of the Hartley strain, both male and female, with body weights of about 400 g were assigned to groups of 6-10 individuals, and the bronchoconstriction due to LTD4 was measured according to the method of Konzett-Rossler, [Konzett, H. and Rössler, R.: Naunyn-Schmidebergs Archiv für Experimentelle Pathologie und Pharmakologie, 195, 71-74 (1940).] Each guinea pig was fixed in a supine position under urethane anesthesis (1.5 g/kg, intraperitoneal) and the trachea was incised and connected to an artificial respiration apparatus, Rodent Respirator Model 680 [Harvard Apparatus Company, U.S.A.] via a cannula. The branch tube of this tracheal cannula was connected to a Bronchospasm Transducer Model 7020 [Ugobasil Biological Research Apparatus, Italy]. Under the conditions of 4 to 7 ml of air per stroke, 70 strokes per minute and a lung loading pressure of 10 cmH20, the volume of overflowing air was recorded on Rectigraph-8S (San-eiSokki Ltd., Japan) via a transducer. After administration of gallamine triethiodide (1'mg/kg, i.v.), a solution of LTD4 in physiological saline (10 µg/kg) was intravenously administered and the bronchoconstriction elicited thereby was recorded for 15 minutes. The compound was used as suspended in a 5% solution of gum arabic or dissolved in water, and administered orally in a volume of 0.2 ml per 100 c body weight one hour before LTD4 loading. […]

Compound | Autopsy after 7 days ([1]; 2000 mg/kg) | symptoms attributable to the compound (acute toxicity) ([1]; 2000 mg/kg) | ED50 [2] | Autopsy after 7 days ([1]; 500 mg/kg) | symptoms attributable to the compound (acute toxicity) ([1]; 500 mg/kg)
CCCc1c(OCCCOc2ccc(C(=O)OCCN3CCOCC3)cc2Br)ccc(C(C)=O)c1O [C, 2-morpholinoethyl 4-[3-(4-acetyl-3-hydroxy-2-propylphenoxy)propoxy]-3-bromobenzoate] | did not reveal any abnormalities | no symptoms |  |  | 
CCCc1c(OCCCOc2ccc(C(=O)O)cc2Br)ccc(C(C)=O)c1OC(C)=O [Compound A, 4-[3-(3-acetoxy-4-acetyl-2-propylphenoxy)propoxy]-3-bromobenzoic acid] |  |  | 47 µmol/kg | did not reveal any abnormalities | no symptoms
CCCc1c(OCCCOc2ccc(C(=O)OCCCN(C)C)cc2Br)ccc(C(C)=O)c1O [E, 3-dimethylaminopropyl 4-[3-(4-acetyl-3-hydroxy-2-propylphenoxy)propoxy]-3-bromobenzoate] | did not reveal any abnormalities | no symptoms |  |  | 
